# Experimental data reported in patent US11377441B2, “Covalent inhibitors of KRAS” (Araxes Pharma LLC, priority 2017, dated 2022).
# Target: T1, KRAS G12C 1-169, his-tagged protein, GDP-loaded (Homo sapiens, UniProt P01116, G12C)
# T1 construct: KRAS G12C 1-169, his-tagged protein, GDP-loaded
# Experiment: Biochemical assay: covalent modification of KRAS G12C measured by mass spectrometry (RapidFire/TOF or Q-Exactive)
# Type: binding
# Conditions: covalent binding to (modification of) KRAS G12C after a ten minute incubation period
# Outline: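 Intact-mass readout (TOF or Q-Exactive, charge-envelope deconvolution) gives percent covalent adduct from modified and unmodified species. Compound at 10, 30 or 100 μM was incubated at room temperature for 10 min to 24 h with 2 μM or 0.5 μM GDP-bound KRAS G12C 1-169 in Hepes/NaCl/MgCl2 buffer, then acid-quenched.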
row,Compound,Binding %
1,"C=CC(=O)N1C[C@H](C)N(c2nc(OC[C@@H]3CN(C)CCO3)nc3c(F)c(-c4c(C)ccc5[nH]nc(C)c45)c(Cl)cc23)C[C@H]1C [Compound 188, 1-((2R,5S)-4-(6-chloro-7-(3,5-dimethyl-1H-indazol-4-yl)-8-fluoro-2-(((S)-4-methylmorpholin-2-yl)methoxy)quinazolin-4-yl)-2,5-dimethylpiperazin-1-yl)prop-2-en-1-one]",+++ (+++ indicates binding activity greater than 80%)
2,"C=CC(=O)N1C[C@H](C)N(c2nc(OC[C@H]3CN(C)CCO3)nc3c(F)c(-c4c(C)ccc5[nH]nc(C6CC6)c45)c(Cl)cc23)C[C@H]1C [Compound 189, 1-((2R,5S)-4-(6-chloro-7-(3-cyclopropyl-5-methyl-1H-indazol-4-yl)-8-fluoro-2-(((R)-4-methylmorpholiln-2-yl)methoxy)quinazolin-4-yl)-2,5-dimethylpiperazin-1-yl)prop-2-en-1-one]",+++ (+++ indicates binding activity greater than 80%)
3,"C=CC(=O)N1C[C@H](C)N(c2nc(OC[C@H]3CN(C)CCO3)nc3c(F)c(-c4c(C)ccc5[nH]nc(C)c45)c(Cl)cc23)C[C@H]1C [Compound 190, 1-((2R,5S)-4-(6-chloro-7-(3,5-dimethyl-1H-indazol-4-yl)-8-fluoro-2-(((R)-4-methylmorpholin-2-yl)methoxy)quinazolin-4-yl)-2,5-dimethylpiperazin-1-yl)prop-2-en-1-one]",+++ (+++ indicates binding activity greater than 80%)
4,"C=CS(=O)(=O)N1C[C@H](C)N(c2nc(N3CC(N(C)C)C3)nc3c(F)c(-c4c(C)ccc5cnn(C)c45)c(Cl)cc23)C[C@H]1C [Compound 191, 1-(6-chloro-7-(1,6-dimethyl-1H-indazol-7-yl)-4-((2S,5R)-2,5-dimethyl-4-(vinylsulfonyl)piperazin-1-yl)-8-fluoroquinazolin-2-yl)-N,N-dimethylazetidin-3-amine]",+ (+ indicates binding activity greater than 0% and up to 50%)
5,"C=CC(=O)N1C[C@H](C)N(c2nc(N3CC(N(C)C)C3)nc3c(F)c(-c4c(C)ccc5[nH]nc(C)c45)c(C(F)(F)F)cc23)C[C@H]1C [Compound 192, 1-((2R,5S)-4-(7-(3,5-dimethyl-1H-indazol-4-yl)-2-(3-(dimethylamino)azetidin-1-yl)-8-fluoro-6-(trifluoromethyl)quina-zolin-4-yl)-2,5-dimethylpiperazin-1-yl)prop-2-en-1-one]",+++ (+++ indicates binding activity greater than 80%)
6,"C=CC(=O)N1C[C@H](C)N(c2nc(N3CC(N(C)C)C3)nc3c(F)c(-c4c(C)ccc5[nH]nc(C6CC6)c45)c(C(F)(F)F)cc23)C[C@H]1C [Compound 193, 1-((2R,5S)-4-(7-(3-cyclopropyl-5-methyl-1H-indazol-4-yl)-2-(3-(dimethylamino)azetidin-1-yl)-8-fluoro-6-(trifluoromethyl)quina-zolin-4-yl)-2,5-dimethylpiperazin-1-yl)prop-2-en-1-one]",+++ (+++ indicates binding activity greater than 80%)
7,"C=CS(=O)(=O)N1C[C@H](C)N(c2nc(N3CC(N(C)C)C3)nc3c(F)c(-c4c(C)ccc5[nH]nc(C)c45)c(Cl)cc23)C[C@H]1C [Compound 194, 1-(6-chloro-7-(3,5-dimethyl-1H-indazol-4-yl)-4-((2S,5R)-2,5-dimethyl-4-(vinylsulfonyl)piperazin-1-yl)-8-fluoroquinazolin-2-yl)-N,N-dimethylazetidin-3-amine]",+ (+ indicates binding activity greater than 0% and up to 50%)
8,"C=CC(=O)N1C[C@H](C)N(c2nc(N3CC(N(C)C)C3)nc3c(F)c(-c4c(C)ccc5c(Cl)nn(C)c45)c(Cl)cc23)C[C@H]1C [Compound 195, 1-((2R,5S)-4-(6-chloro-7-(3-chloro-1,6-dimethyl-1H-indazol-7-yl)-2-(3-(dimethylamino)azetidin-1-yl)-8-fluoroquinazolin-4-yl)-2,5-dimethylpiperazin-1-yl)prop-2-en-1-one]",+ (+ indicates binding activity greater than 0% and up to 50%)
9,"C=CC(=O)N1C[C@H](C)N(c2nc(OC[C@H]3CCN(C)C3)nc3c(F)c(-c4c(C)ccc5cnn(C)c45)c(Cl)cc23)C[C@H]1C [Compound 196, 1-((2R,5S)-4-(6-chloro-7-(1,6-dimethyl-1H-indazol-7-yl)-8-fluoro-2-(((S)-1-methylpyrrolidin-3-yl)methoxy)quinazolin-4-yl)-2,5-dimethylpiperazin-1-yl)prop-2-en-1-one]",++ (++ indicates binding activity from 50 to 80%)
10,"C=CC(=O)N1C[C@H](C)N(c2nc(OC[C@@H]3C[C@H](OC)CN3C)nc3c(F)c(-c4c(C)ccc5cnn(C)c45)c(Cl)cc23)C[C@H]1C [Compound 197, 1-((2R,5S)-4-(6-chloro-7-(1,6-dimethyl-1H-indazol-7-yl)-8-fluoro-2-(((2S,4S)-4-methoxy-1-methylpyrrolidin-2-yl)methoxy)quinazolin-4-yl)-2,5-dimethylpiperazin-1-yl)prop-2-en-1-one]",+++ (+++ indicates binding activity greater than 80%)
11,"C=CC(=O)N1C[C@H](C)N(c2nc(OC[C@H]3CCN(C)C3)nc3c(F)c(-c4c(C)ccc5cnn(C6CC6)c45)c(Cl)cc23)C[C@H]1C [Compound 198, 1-((2R,5S)-4-(6-chloro-7-(1-cyclopropyl-6-methyl-1H-indazol-7-yl)-8-fluoro-2-(((S)-1-methylpyrrolidin-3-yl)methoxy)quinazolin-4-yl)-2,5-dimethylpiperazin-1-yl)prop-2-en-1-one]",++ (++ indicates binding activity from 50 to 80%)
12,"C=CC(=O)N1C[C@H](C)N(c2nc(OC[C@@H]3C[C@H](OC)CN3C)nc3c(F)c(-c4c(C)ccc5cnn(C6CC6)c45)c(Cl)cc23)C[C@H]1C [Compound 199, 1-((2R,5S)-4-(6-chloro-7-(1-cyclopropyl-6-methyl-1H-indazol-7-yl)-8-fluoro-2-(((2S,4S)-4-methoxy-1-methylpyrrolidin-2-yl)methoxy)quinazolin-4-yl)-2,5-dimethylpiperazin-1-yl)prop-2-en-1-one]",+++ (+++ indicates binding activity greater than 80%)
13,"C=CC(=O)N1C[C@H](C)N(c2nc(N3CC(N(C)C)C3)nc3c(F)c(-c4c(F)ccc5cnn(C6CC6)c45)c(Cl)cc23)C[C@H]1C [Compound 200, 1-((2R,5S)-4-(6-chloro-7-(1-cyclopropyl-6-fluoro-1H-indazol-7-yl)-2-(3-(dimethylamino)azetidin-1-yl)-8-fluoroquinazolin-4-yl)-2,5-dimethylpiperazin-1-yl)prop-2-en-1-one]",+ (+ indicates binding activity greater than 0% and up to 50%)
14,"C=CC(=O)N1C[C@H](C)N(c2nc(N3CC(N(C)C)C3)nc3c(F)c(-c4c(C)ccc5ccn(C)c45)c(Cl)cc23)C[C@H]1C [Compound 202, 1-((2R,5S)-4-((S)-6-chloro-7-(1,6-dimethyl-1H-indol-7-yl)-2-(3-(dimethylamino)azetidin-1-yl)-8-fluoroquinazolin-4-yl)-2,5-dimethylpiperazin-1-yl)prop-2-en-1-one]",+ (+ indicates binding activity greater than 0% and up to 50%)
15,"C=CC(=O)N1C[C@H](C)N(c2nc(N3CC(N(C)C)C3)nc3c(F)c(-c4c(C)ccc5ccn(C)c45)c(Cl)cc23)C[C@H]1C [Compound 203, 1-((2R,5S)-4-((R)-6 chloro-7-(1,6-dimethyl-1H-indol-7-yl)-2-(3-(dimethylamino)azetidin-1-yl)-8-fluoroquinazolin-4-yl)-2,5-dimethylpiperazin-1-yl)prop-2-en-1-one]",+++ (+++ indicates binding activity greater than 80%)
